Among the data in US7968577B2 (Bristol-Myers Squibb Company, priority 2006, dated 2011) are Ki values, retold here.

As a reminder, the Ki is a measure of affinity in units of concentration, obtained from inhibition or displacement. Low values mean tighter binding, high ones weaker binding.

The structures appear in SMILES notation.

In the assay the target is T1, human glucocorticoid receptor (Homo sapiens, UniProt P04150).
T1 construct: purified human recombinant full-length glucocorticoid receptor; purchased Invitrogen Part #2893
T1 sequence (P04150 1-777): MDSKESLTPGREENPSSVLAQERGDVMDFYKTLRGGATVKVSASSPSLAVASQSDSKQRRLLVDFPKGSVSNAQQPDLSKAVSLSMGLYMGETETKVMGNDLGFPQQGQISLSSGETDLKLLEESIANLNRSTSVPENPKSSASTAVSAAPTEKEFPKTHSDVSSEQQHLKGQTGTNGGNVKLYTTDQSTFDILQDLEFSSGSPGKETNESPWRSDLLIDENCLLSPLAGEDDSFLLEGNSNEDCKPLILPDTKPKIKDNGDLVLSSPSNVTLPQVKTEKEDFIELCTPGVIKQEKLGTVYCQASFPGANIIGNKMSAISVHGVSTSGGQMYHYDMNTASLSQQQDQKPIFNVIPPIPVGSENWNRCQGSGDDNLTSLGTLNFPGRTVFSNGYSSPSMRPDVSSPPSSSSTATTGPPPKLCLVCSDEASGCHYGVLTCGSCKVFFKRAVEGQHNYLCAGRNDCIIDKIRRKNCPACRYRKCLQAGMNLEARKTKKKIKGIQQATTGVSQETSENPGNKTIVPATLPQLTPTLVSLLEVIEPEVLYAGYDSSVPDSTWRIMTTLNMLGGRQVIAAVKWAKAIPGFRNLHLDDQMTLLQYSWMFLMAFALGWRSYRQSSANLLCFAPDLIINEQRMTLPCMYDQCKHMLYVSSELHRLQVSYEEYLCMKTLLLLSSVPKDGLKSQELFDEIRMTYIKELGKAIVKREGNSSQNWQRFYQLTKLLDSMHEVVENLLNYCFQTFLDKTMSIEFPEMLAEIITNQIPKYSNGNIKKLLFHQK
The assay can be described thus: Glucocorticoid Receptor Binding Assay (I), fluorescence polarization competitor kit (Fluormone GS Red). The note with it: GR Binding Assay (I). On the procedure: Glucocorticoid Receptor Binding Assay (I)^a
In order to assess the affinity of test compounds for the human glucocorticoid receptor, a commercially available kit was used (Glucocorticoid Receptor Competitor Assay Kit, Invitrogen Part #2893). Briefly, purified human recombinant full-length glucocorticoid receptor (2 nM) was mixed with fluorescently labeled glucocorticoid (1 nM Fluormone GS Red) in the presence or absence of test compound. After two hour incubation at room temperature in the dark, the fluorescence polarization (FP) of the samples was measured. […] Test compounds were analyzed in the concentration range from 8.5 E-05 μM to 5 μM.
As to `CCOc1ccc(-c2ccc(C(CC(C)C)C(C)(C)C(=O)Nc3nncs3)cc2)cc1` (centres unmarked) [Example 430, 3-(4′-ethoxy-4-biphenylyl)-2,2,5-trimethyl-N-1,3,4-thiadiazol-2-ylhexanamide], the affinity corresponds to a Ki of 4.87 nM. This lies in the single-digit nanomolar range. With `COc1ccc(C(c2ccccc2)C(C)(C)C(=O)Nc2nncs2)cc1C` (single isomer, unassigned) [Example 295, 2,2-dimethyl-3-(3-methyl-4-(methyloxy)phenyl)-3-phenyl-N-1,3,4-thiadiazol-2-ylpropanamide] the figure was 13.9 nM; with `COc1ccc(-c2ccc(C(c3ccccc3)C(C)(C)C(=O)Nc3nncs3)cc2)cc1F` (centres unmarked) [Example 420, 3-(3′-fluoro-4′-methoxy-4-biphenylyl)-2,2-dimethyl-3-phenyl-N-1,3,4-thiadiazol-2-ylpropanamide], 13.3 nM; with `O=C(Nc1nccs1)C1(C(c2ccccc2)c2ccccc2)CCC1` [Example 153, 1-(diphenylmethyl)-N-1,3-thiazol-2-ylcyclobutanecarboxamide], 23.2 nM. With `CC(C)CC(c1ccc(-c2ccc(O)cc2)cc1)C(C)(C)C(=O)Nc1nncs1` (centres unmarked) [Example 436, 3-(4′-hydroxy-4-biphenylyl)-2,2,5-trimethyl-N-1,3,4-thiadiazol-2-ylhexanamide], the Ki was found to be 105 nM. Consider `CN(C)C(=O)c1ccc(-c2ccc(C(c3ccccc3)C(C)(C)C(=O)Nc3nccs3)cc2)cc1` (centres unmarked) [Example 381, 4′-(2,2-dimethyl-3-oxo-1-phenyl-3-(1,3-thiazol-2-ylamino)propyl)-N,N-dimethyl-4-biphenylcarboxamide], for which the Ki is 3.53 nM. As for `CC(C)(C(=O)Nc1nccs1)C(c1ccccc1)c1ccc(Cc2ccccc2)cc1` (centres unmarked) [Example 319, 2,2-dimethyl-3-phenyl-3-(4-(phenylmethyl)phenyl)-N-1,3-thiazol-2-ylpropanamide], the affinity, expressed as Ki, was 386 nM. `CC(C)(C(=O)Nc1nncs1)C(c1ccccc1)c1ccc(Cc2ccccc2)cc1` (centres unmarked) [Example 320, 2,2-dimethyl-3-phenyl-3-(4-(phenylmethyl)phenyl)-N-1,3,4-thiadiazol-2-ylpropanamide] had a Ki of 187 nM. Take `CC(C)Cc1ccc(-c2ccc(C(CC(C)C)C(C)(C)C(=O)Nc3nncs3)cc2)cc1` (centres unmarked) [Example 397, 2,2,5-trimethyl-3-(4′-(2-methylpropyl)-4-biphenylyl)-N-1,3,4-thiadiazol-2-ylhexanamide]: the Ki worked out at 12.1 nM. With `CC(C)CC(c1ccc(N2CCOCC2)cc1)C(C)(C)C(=O)Nc1nccs1` (centres unmarked) [Example 389, 2,2,5-trimethyl-3-(4-(4-morpholinyl)phenyl)-N-1,3-thiazol-2-ylhexanamide] the figure was 4.65 nM. `CC(C)CC(c1ccc(-c2ccc(C(=O)N(C)C)cc2)cc1)C(C)(C)C(=O)Nc1nncs1` (centres unmarked) [Example 393, 4′-(1-(1,1-dimethyl-2-oxo-2-(1,3,4-thiadiazol-2-ylamino)ethyl)-3-methylbutyl)-N,N-dimethyl-4-biphenylcarboxamide] yielded a Ki of 3.68 nM. Consider `CC(=O)Nc1ccc(-c2ccc(C(c3ccccc3)C(C)(C)C(=O)Nc3nncs3)cc2)cc1` (centres unmarked) [Example 414, 3-(4′-acetamido-4-biphenylyl)-2,2-dimethyl-3-phenyl-N-1,3,4-thiadiazol-2-ylpropanamide], for which affinity was put at a Ki of 9.27 nM.

For the compound `CC(C)Oc1ccc(-c2ccc(C(c3ccccc3)C(C)(C)C(=O)Nc3nncs3)cc2)cc1F` (centres unmarked) [Example 385, 3-(3′-fluoro-4′-((1-methylethyl)oxy)-4-biphenylyl)-2,2-dimethyl-3-phenyl-N-1,3,4-thiadiazol-2-ylpropanamide], the affinity corresponds to a Ki of 13.8 nM. `CC(C)(C(=O)Nc1nncs1)C(c1ccccc1)c1ccc(-c2ccc(O)cc2)cc1` (centres unmarked) [Example 412, 3-(4′-hydroxy-4-biphenylyl)-2,2-dimethyl-3-phenyl-N-1,3,4-thiadiazol-2-ylpropanamide] gave a Ki of 16.5 nM. For the compound `CC(C)CC(c1ccc(-c2cccc(Cl)c2)cc1)C(C)(C)C(=O)Nc1nncs1` (centres unmarked) [Example 434, 3-(3′-chloro-4-biphenylyl)-2,2,5-trimethyl-N-1,3,4-thiadiazol-2-ylhexanamide], the Ki came out at 19.4 nM. With `CC(C)(C(=O)Nc1nncs1)C(c1ccccc1)c1ccc(Oc2ccccc2)cc1` (centres unmarked) [Example 322, 2,2-dimethyl-3-phenyl-3-(4-(phenyloxy)phenyl)-N-1,3,4-thiadiazol-2-ylpropanamide] the figure was 5.17 nM; with `COc1ccccc1-c1ccc(C(c2ccccc2)C(C)(C)C(=O)Nc2nncs2)cc1` (centres unmarked) [Example 411, 3-(2′-methoxy-4-biphenylyl)-2,2-dimethyl-3-phenyl-N-1,3,4-thiadiazol-2-ylpropanamide], 154 nM. In turn, `CN1CCN(C(=O)c2ccc(-c3ccc(C(c4ccccc4)C(C)(C)C(=O)Nc4nncs4)cc3)cc2)CC1` (centres unmarked) [Example 426, 2,2-dimethyl-3-(4′-((4-methyl-1-piperazinyl)carbonyl)-4-biphenylyl)-3-phenyl-N-1,3,4-thiadiazol-2-ylpropanamide] yielded a Ki of 3.68 nM. In the case of `CC(C)CC(c1ccc(Br)cc1)C(C)(C)C(=O)Nc1nncs1` (centres unmarked) [Example 387, 3-(4-bromophenyl)-2,2,5-trimethyl-N-1,3,4-thiadiazol-2-ylhexanamide], the affinity corresponds to a Ki of 17.1 nM. With `CCOc1ccc(-c2ccc(C(c3ccccc3)C(C)(C)C(=O)Nc3nncs3)cc2)cc1` (centres unmarked) [Example 419, 3-(4′-ethoxy-4-biphenylyl)-2,2-dimethyl-3-phenyl-N-1,3,4-thiadiazol-2-ylpropanamide] the figure was 5.53 nM; with `COc1ccc(-c2ccc(C(CC(C)C)C(C)(C)C(=O)Nc3nccs3)cc2)cc1` (centres unmarked) [Example 391, 2,2,5-trimethyl-3-(4′-(methyloxy)-4-biphenylyl)-N-1,3-thiazol-2-ylhexanamide], 11.1 nM.

In the case of `CCCc1ccc(-c2ccc(C(CC(C)C)C(C)(C)C(=O)Nc3nncs3)cc2)cc1` (centres unmarked) [Example 399, 2,2,5-trimethyl-3-(4′-propyl-4-biphenylyl)-N-1,3,4-thiadiazol-2-ylhexanamide], the Ki is 7.1 nM.

The compound `COc1ccc(-c2ccc(C(c3ccccc3)C(C)(C)C(=O)Nc3nncs3)cc2)cc1` (centres unmarked) [Example 377, 2,2-dimethyl-3-(4′-(methyloxy)-4-biphenylyl)-3-phenyl-N-1,3,4-thiadiazol-2-ylpropanamide] returned a Ki of 1.81 nM. In the case of `CC(C)CC(c1ccc(-c2ccc(C(=O)N(C)C)cc2)cc1)C(C)(C)C(=O)Nc1nccs1` (centres unmarked) [Example 392, 4′-(1-(1,1-dimethyl-2-oxo-2-(1,3-thiazol-2-ylamino)ethyl)-3-methylbutyl)-N,N-dimethyl-4-biphenylcarboxamide], the Ki is 6.83 nM. This Ki is about 3.8-fold higher than that of the compound before. Compound `CC(C)(C)c1ccc(-c2ccc(C(c3ccccc3)C(C)(C)C(=O)Nc3nncs3)cc2)cc1` (centres unmarked) [Example 417, 3-(4′-tert-butyl-4-biphenylyl)-2,2-dimethyl-3-phenyl-N-1,3,4-thiadiazol-2-ylpropanamide] displayed a Ki of 52.9 nM. This Ki is about 7.7-fold higher than that of the compound before.

Compound `COCc1ccc(-c2ccc(C(CC(C)C)C(C)(C)C(=O)Nc3nncs3)cc2)cc1` (centres unmarked) [Example 428, 3-(4′-(methoxymethyl)-4-biphenylyl)-2,2,5-trimethyl-N-1,3,4-thiadiazol-2-ylhexanamide] showed a Ki of 17.9 nM. With `Cc1nnc(NC(=O)C(C)(C)C(CC(C)C)c2ccc(N3CCOCC3)cc2)s1` (centres unmarked) [Example 388, 2,2,5-trimethyl-N-(5-methyl-1,3,4-thiadiazol-2-yl)-3-(4-(4-morpholinyl)phenyl)hexanamide] the figure was 14 nM; with `CCCCc1ccc(-c2ccc(C(c3ccccc3)C(C)(C)C(=O)Nc3nncs3)cc2)cc1` (centres unmarked) [Example 418, 3-(4′-butyl-4-biphenylyl)-2,2-dimethyl-3-phenyl-N-1,3,4-thiadiazol-2-ylpropanamide], 26.5 nM.

Take `COc1ccccc1-c1ccc(C(CC(C)C)C(C)(C)C(=O)Nc2nncs2)cc1` (centres unmarked) [Example 435, 3-(2′-methoxy-4-biphenylyl)-2,2,5-trimethyl-N-1,3,4-thiadiazol-2-ylhexanamide]: the Ki amounted to 10.7 nM. Compound `CC(C)(C(=O)Nc1nccs1)C(c1ccccc1)c1ccc(Oc2ccccc2)cc1` (centres unmarked) [Example 321, 2,2-dimethyl-3-phenyl-3-(4-(phenyloxy)phenyl)-N-1,3-thiazol-2-ylpropanamide] displayed a Ki of 5.68 nM. With `CC(C)CC(c1ccc(-c2ccc3c(c2)CCO3)cc1)C(C)(C)C(=O)Nc1nncs1` (centres unmarked) [Example 441, 3-(4-(2,3-dihydro-1-benzofuran-5-yl)phenyl)-2,2,5-trimethyl-N-1,3,4-thiadiazol-2-ylhexanamide] the figure was 104 nM; with `CC(C)CC(c1ccc(-c2ccccc2)cc1)C(C)(C)C(=O)Nc1nncs1` (centres unmarked) [Example 431, 3-(4-biphenylyl)-2,2,5-trimethyl-N-1,3,4-thiadiazol-2-ylhexanamide], 52.8 nM.
